Assay results as given in PMC2903443 (Journal of medicinal chemistry, 2010).
Like-named read-outs stand apart in the source and are kept apart here.

Key:
[1] = biological target: T1, mtIMPDH (Mycobacterium tuberculosis, UniProt P9WKI7); test: biochemical; format: biochemical
[2] = biological target: T1, mtIMPDH; test: biochemical
[3] = system: human-type 1 IMPDH; details: cited from earlier work
[4] = system: human-type 2 IMPDH; details: cited from earlier work
[5] = biological target: T1, mtIMPDH; format: biochemical
[6] = biological target: hIMPDH1 (Homo sapiens, UniProt P20839); test: IMPDH inhibition assay; format: biochemical; details: hIMPDHs, isoform not specified; relative to compound 6
Chain of hIMPDH1 (P20839 whole entry, canonical isoform): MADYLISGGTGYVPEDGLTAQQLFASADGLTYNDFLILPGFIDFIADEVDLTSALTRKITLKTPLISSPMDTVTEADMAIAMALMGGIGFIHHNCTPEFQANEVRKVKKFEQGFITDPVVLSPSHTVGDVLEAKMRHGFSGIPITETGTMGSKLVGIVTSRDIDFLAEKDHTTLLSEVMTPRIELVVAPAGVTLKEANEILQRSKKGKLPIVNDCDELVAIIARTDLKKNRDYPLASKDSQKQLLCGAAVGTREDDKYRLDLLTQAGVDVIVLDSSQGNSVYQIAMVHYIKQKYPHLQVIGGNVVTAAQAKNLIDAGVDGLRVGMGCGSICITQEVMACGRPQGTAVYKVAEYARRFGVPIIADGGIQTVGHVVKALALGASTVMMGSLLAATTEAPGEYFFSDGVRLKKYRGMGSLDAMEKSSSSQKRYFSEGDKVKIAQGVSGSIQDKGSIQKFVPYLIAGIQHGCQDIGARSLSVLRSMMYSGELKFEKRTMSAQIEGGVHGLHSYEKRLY

T1 sequence (P9WKI7 whole entry, looked up): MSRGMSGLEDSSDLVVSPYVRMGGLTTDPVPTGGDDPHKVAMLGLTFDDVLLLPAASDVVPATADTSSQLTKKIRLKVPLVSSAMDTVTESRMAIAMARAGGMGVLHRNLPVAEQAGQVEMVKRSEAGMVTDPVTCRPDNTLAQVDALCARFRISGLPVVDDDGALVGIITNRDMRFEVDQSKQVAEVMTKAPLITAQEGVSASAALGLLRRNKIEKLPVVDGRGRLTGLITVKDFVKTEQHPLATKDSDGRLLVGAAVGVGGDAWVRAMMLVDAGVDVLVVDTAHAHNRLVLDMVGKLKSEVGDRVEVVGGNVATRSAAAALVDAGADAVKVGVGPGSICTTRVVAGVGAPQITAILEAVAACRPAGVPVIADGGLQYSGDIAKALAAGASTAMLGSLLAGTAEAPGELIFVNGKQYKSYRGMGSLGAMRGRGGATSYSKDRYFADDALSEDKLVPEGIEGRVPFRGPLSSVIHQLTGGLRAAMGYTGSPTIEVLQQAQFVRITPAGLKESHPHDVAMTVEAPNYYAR

With `COc1c(C)c2c(c(O)c1CCOP(=O)(O)CP(=O)(O)OC[C@H]1O[C@@H](n3cnc4c(N)nc(-c5ccccc5)nc43)[C@H](O)[C@@H]1O)C(=O)OC2` [Compound 3b] the Ki [1] was > 100 µM.

For `NC(=O)c1ccc[n+]([C@@H]2O[C@H](COP(=O)([O-])OP(=O)(O)OC[C@H]3O[C@@H](n4cnc5c(N)ncnc54)[C@H](O)[C@@H]3O)[C@@H](O)[C@H]2O)c1` [NAD, nicotinamide adenine dinucleotide], the Ki [2] is given as 5 ± 0.6 mM, the Km ([3]; read-out: KM (NAD), ref [28]) is given as 70 ± 10 µM and the Ki ([3]; read-out: Ki (NAD), ref [28]) is given as 2 ± 0.6 mM. The Km ([4]; read-out: KM (NAD), ref [27]) was 6 ± 1 µM and the Ki ([4]; read-out: Ki (NAD), ref [27]) was 590 ± 20 µM.

In the case of `COc1c(C)c2c(c(O)c1C/C=C(\C)Cn1cc(COC[C@H]3O[C@@H](n4cnc5c(N)ncnc54)[C@H](O)[C@@H]3O)nn1)C(=O)OC2` [Compound 9, 6-((E)-4-(4-(Adenosin-5′-yl)methyl-1H-1,2,3-triazol-1-yl)-3-methylbut-2-en-1-yl)-7-hydroxy-5-methoxy-4-methylisobenzofuran-1(3H)-one], the “activity against mtIMPDH (in words)” value [1] is reported as “significant inhibition”, the “uncompetitive Kiu vs. IMP” value ([5]; IMP varied 1.4 μM to 1 mM, NAD fixed 0.5 mM, mtIMPDH […]) is reported as 2.2 ± 0.1 µM and the “uncompetitive Kiu vs. NAD” value ([5]; NAD varied 94 μM to 3 mM, IMP fixed 100 μM, mtIMPDH […]) is reported as 1.5 ± 0.1 µM. For the same molecule, the mode of inhibition ([5]; with respect to both NAD and IMP) was “uncompetitive”.

For `C#Cc1nc(N)c2ncn([C@@H]3O[C@H](CNS(=O)(=O)CS(=O)(=O)NCCc4c(O)c5c(c(C)c4OC)COC5=O)[C@@H](O)[C@H]3O)c2n1` [Compound 5c], the Ki [1] was > 100 µM.

In the case of `COc1c(C)c2c(c(O)c1CCn1cc(COC[C@H]3O[C@@H](n4cnc5c(N)ncnc54)[C@H](O)[C@@H]3O)nn1)C(=O)OC2` [Compound 8, 6-(2-(4-(Adenosin-5′-yl)methyl-1H-1,2,3-triazol-1-yl)ethyl)-7-hydroxy-5-methoxy-4-methylisobenzofuran-1(3H)-one], the “fold more potent than compound 6” value [6] is reported as 10 fold and the Ki [1] is reported as > 100 µM.

In the case of `COc1c(C)c2c(c(O)c1CCNS(=O)(=O)CS(=O)(=O)NC[C@H]1O[C@@H](n3cnc4c(N)nc(-c5ccccc5)nc43)[C@H](O)[C@@H]1O)C(=O)OC2` [Compound 5b], the Ki [1] is reported as > 100 µM.

In the case of `COc1c(C)c2c(c(O)c1C/C=C(\C)COP(=O)(O)CP(=O)(O)OC[C@H]1O[C@@H](n3cnc4c(N)ncnc43)[C@H](O)[C@@H]1O)C(=O)OC2` [Compound 4], the Ki [1] is reported as > 100 µM.

In the case of `COc1c(C)c2c(c(O)c1C/C=C(\C)CCC(=O)O)C(=O)OC2` [Compound 1, Mycophenolic acid], the Hill-slope ([1]; fit of Ki^app against mtIMPDH) is reported as 1.5 and the “Ki^app value against mtIMPDH with detergent” value ([1]; reaction buffer containing 0.1% Trition X-100, compared with buffer without) is reported as “not affected”.

For `CCc1nc(N)c2ncn([C@@H]3O[C@H](CNS(=O)(=O)CS(=O)(=O)NCCc4c(O)c5c(c(C)c4OC)COC5=O)[C@@H](O)[C@H]3O)c2n1` [Compound 5d], the Ki [1] was > 100 µM.

For `COc1c(C)c2c(c(O)c1CCNCc1cn(C[C@H]3O[C@@H](n4cnc5c(N)ncnc54)[C@H](O)[C@@H]3O)nn1)C(=O)OC2` [Compound 6, 6-(2-(((1-(5′-Deoxy-adenosin-5′-yl)-1H-1,2,3-triazol-4-yl)methyl)amino)ethyl)-7-hydroxy-5-methoxy-4-methylisobenzofuran-1(3H)-one], the Ki [1] was > 100 µM.
